Laboratory results from patent US20090192135A1, “Human Niemann Pick C1-Like 1 Gene (NPC1L1) Polymorphisms and Methods of Use Thereof” (SCHERING CORPORATION, priority 2005, published 2009).

Biological target: T1, NPC1L1 (Homo sapiens, UniProt Q9UHC9)
T1 construct: from tissue; host or cells: small intestine of hypercholesterolemic patients (in vivo, clinical trial)
T1 sequence (Q9UHC9 22-1332 isoform Q9UHC9-2 limits assumed): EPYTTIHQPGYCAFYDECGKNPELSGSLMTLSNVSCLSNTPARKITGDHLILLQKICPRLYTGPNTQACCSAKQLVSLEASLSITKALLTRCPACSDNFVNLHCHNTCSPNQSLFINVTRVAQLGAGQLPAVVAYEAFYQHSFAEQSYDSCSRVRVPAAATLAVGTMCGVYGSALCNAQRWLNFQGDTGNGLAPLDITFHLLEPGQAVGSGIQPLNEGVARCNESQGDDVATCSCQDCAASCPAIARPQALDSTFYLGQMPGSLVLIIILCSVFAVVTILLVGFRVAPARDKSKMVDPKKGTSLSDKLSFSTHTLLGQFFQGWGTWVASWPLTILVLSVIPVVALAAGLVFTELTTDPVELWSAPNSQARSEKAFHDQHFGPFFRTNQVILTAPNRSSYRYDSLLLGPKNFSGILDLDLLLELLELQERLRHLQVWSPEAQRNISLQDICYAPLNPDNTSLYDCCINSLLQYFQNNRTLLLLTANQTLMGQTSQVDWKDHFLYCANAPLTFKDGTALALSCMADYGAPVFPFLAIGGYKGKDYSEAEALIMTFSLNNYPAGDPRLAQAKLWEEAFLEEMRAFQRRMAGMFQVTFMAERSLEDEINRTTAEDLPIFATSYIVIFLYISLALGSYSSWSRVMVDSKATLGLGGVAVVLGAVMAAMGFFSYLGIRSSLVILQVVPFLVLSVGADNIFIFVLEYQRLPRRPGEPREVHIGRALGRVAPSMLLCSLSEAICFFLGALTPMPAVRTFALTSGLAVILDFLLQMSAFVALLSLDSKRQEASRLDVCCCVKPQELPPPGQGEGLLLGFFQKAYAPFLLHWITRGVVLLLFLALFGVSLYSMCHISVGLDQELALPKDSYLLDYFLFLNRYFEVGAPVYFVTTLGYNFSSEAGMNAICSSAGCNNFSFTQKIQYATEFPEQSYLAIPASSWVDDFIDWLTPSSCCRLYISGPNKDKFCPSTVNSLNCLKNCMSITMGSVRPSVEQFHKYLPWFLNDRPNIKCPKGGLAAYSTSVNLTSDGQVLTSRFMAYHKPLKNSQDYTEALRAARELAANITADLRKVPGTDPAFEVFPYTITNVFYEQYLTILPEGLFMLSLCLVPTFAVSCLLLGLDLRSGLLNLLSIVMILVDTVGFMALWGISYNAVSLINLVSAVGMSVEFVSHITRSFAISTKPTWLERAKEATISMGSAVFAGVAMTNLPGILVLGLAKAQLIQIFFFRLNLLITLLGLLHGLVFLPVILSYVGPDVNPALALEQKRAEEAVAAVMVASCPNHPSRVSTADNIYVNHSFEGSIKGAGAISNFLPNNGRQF
Experiment: EASE trial: LDL-C response to six weeks of ezetimibe 10 mg/day added to stable statin therapy, analysed by NPC1L1 genotype/haplotype
Format: in vivo
Conditions: for Least-Squares (adjusted) Mean (Stderr), percent change in LDL-C: extreme responders; for Least-Squares adjusted Mean (n/Std error), percent change from baseline LDL-C: EASE cohort N = 1195; for Least-Squares (adjusted) Mean (n,/Stderr), percent change in LDL-C: Extreme responders (<10th or >90th percentile) N = 239
Procedure: Genotyping assays were developed for a number of novel and known common variants with minor allele frequencies greater than 4% that were identified in Example 1. Genetic association analysis was performed with these SNPs in a clinical trial cohort (EASE), described below, to assess whether DNA sequence variants in NPC1L1 are associated with changes in the levels of a variety of plasma cholesterol components in hypercholesterolemia patients in response to pharmacotherapy with ezetimibe and statins as compared to patients treated with a statin and placebo.
To study whether variations in NPC1L1 were associated with response to ezetimibe added to statin therapy, a study population was derived from the Ezetimibe Add-On to Statin for Effectiveness (EASE) Trial (Pearson et al., (2005) Mayo Clinic Proceedings, In Press). The EASE trial was a community-based, randomized, double-blind, placebo controlled study to evaluate the effects of six weeks of ezetimibe, 10 mg/day, added on to a stable regimen of statin therapy, on lipid biomarkers in hypercholesterolemic patients whose LDL-C levels exceeded the National Cholesterol Education Program (NCEP) Adult Treatment Panel (ATP) m guidelines for their coronary heart disease (CHD) risk category. At enrollment, patients taking a stable dose of statin (any dose, any brand) and following a NCEP Step 1 diet or similar cholesterol-lowering diet for at least six weeks prior to entry into the study were randomized to either the ezetimibe (n=2020, 2009 received the treatment) or placebo (n=1010, 1009 received the treatment) arm. From the ezetimibe group, 1208 patients provided consent for genomic analysis and were included in this study. A series of clinical measures corresponding to various cardiovascular risk factors were measured from samples obtained from all trial participants and are summarized by Pearson et al., supra.
Twenty one SNPs from Table 4 (Example 1) were converted to valid genotyping assays, thirteen of which had allele frequencies greater than 2% in all EASE sub-populations. TaqMan Allelic Discrimination assays (Livak, (1999) Genet. Anal. 14:143-49) were performed using Primer Express software and the Assay-by-Design service offered by Applied Biosystems (Foster City, Calif.). […] All probe/primer sets were designed to function using universal reaction and cycling conditions.
The twenty one selected SNPs were genotyped in 1,208 individuals participating in the ezetimibe+statin treatment arm of the EASE trial. A series of clinical measures corresponding to various cardiovascular risk factors were taken on all trial participants (Tables 4a-d). Thirteen selected SNPs genotyped in the EASE cohort were confirmed as having common allele frequencies in this cohort, i.e., an allele frequency of greater than 2% in all EASE sub-populations. […] This could reflect the increased power in the larger EASE cohort to make such detections (see Table 5).
The mean (SD) for total plasma cholesterol, HDL cholesterol (HDL-C), and LDL cholesterol (LDL-C) was 211.0 (34.9), 48.6 (11.5), and 129.1 (30.0) mg/dL, respectively (Pearson et al., supra). […] The distribution of these measurements was similar in the subjects enrolled in this genetic study (Pearson et al., supra). […] No significant associations were found between these response predictive variables and any of the tagging SNPs.
Genetic association analysis was carried out in the EASE cohort with LDL-C response to ezetimibe treatment considered as the primary outcome variable. Individual SNPs, haplotypes, and haplotype combinations were the principal explanatory variables used in the analyses. General linear models were used to estimate the effects of genotypes, haplotypes, and diplotypes on the LDL-C response phenotype. Baseline LDL-C levels, sex, age, and race were investigated to determine if they gave rise to significant effects. Baseline LDL-C levels associated with significant effects in all models and were therefore included in all analyses. […]

[1] = Caucasian ethnic subgroup, g.-18C > A C/A

## O=C1[C@H](CC[C@H](O)c2ccc(F)cc2)[C@@H](c2ccc(O)cc2)N1c1ccc(F)cc1 [ezetimibe, 1-(4-fluorophenyl)-3(R)-[3-(4-fluorophenyl)-3(S)-hydroxypropyl]-4(S)-(4-hydroxyphenyl)-2-azetidinone]
[1]
  Least-Squares (adjusted) Mean (Stderr), percent change in LDL-C: −32.81 (3.83) %
  Least-Squares adjusted Mean (Std error), percent change from baseline LDL-C: −28.22 (0.96) %
Caucasian ethnic subgroup, g.1679C > G C/G
  Least-Squares (adjusted) Mean (Stderr), percent change in LDL-C: −26.61 (3.58) %
Caucasian ethnic subgroup, g.1679C > G G/G
  Least-Squares (adjusted) Mean (Stderr), percent change in LDL-C: −39.00 (10.81) %
Caucasian ethnic subgroup, g.-18C > A A/A
  Least-Squares adjusted Mean (Std error), percent change from baseline LDL-C: −27.19 (3.49) %
Caucasian ethnic subgroup, g.-18C > A C/C
  Least-Squares adjusted Mean (Std error), percent change from baseline LDL-C: −24.34 (0.60) %
Caucasian ethnic subgroup, g.-18C > A, 95% CI 1.27 to 4.39
  Odds Ratio, extreme responder association with SNP: 2.36
Caucasian ethnic subgroup, g.-133A > G A/A
  Least-Squares adjusted Mean (Std error), percent change from baseline LDL-C: −26.59 (0.73) %
Caucasian ethnic subgroup, g.-133A > G A/G
  Least-Squares adjusted Mean (Std error), percent change from baseline LDL-C: −24.78 (0.77) %
Caucasian ethnic subgroup, g.-133A > G G/G
  Least-Squares adjusted Mean (Std error), percent change from baseline LDL-C: −22.80 (1.72) %
Caucasian ethnic subgroup, g.1679C > G (L272L) C/C
  Least-Squares adjusted Mean (Std error), percent change from baseline LDL-C: −24.66 (0.65) %
Caucasian ethnic subgroup, g.1679C > G (L272L) C/G
  Least-Squares adjusted Mean (Std error), percent change from baseline LDL-C: −26.58 (0.85) %
Caucasian ethnic subgroup, g.1679C > G (L272L) G/G
  Least-Squares adjusted Mean (Std error), percent change from baseline LDL-C: −28.18 (2.51) %
Caucasian ethnic subgroup, g.19224G > A A/A
  Least-Squares adjusted Mean (Std error), percent change from baseline LDL-C: −31.64 (6.56) %
Caucasian ethnic subgroup, g.19224G > A G/A
  Least-Squares adjusted Mean (Std error), percent change from baseline LDL-C: −24.81 (1.31) %
Caucasian ethnic subgroup, g.19224G > A G/G
  Least-Squares adjusted Mean (Std error), percent change from baseline LDL-C: −25.56 (0.55) %
Caucasian ethnic subgroup, g.19259T > C C/C
  Least-Squares adjusted Mean (Std error), percent change from baseline LDL-C: −24.95 (2.01) %
Caucasian ethnic subgroup, g.19259T > C T/C
  Least-Squares adjusted Mean (Std error), percent change from baseline LDL-C: −25.61 (0.84) %
Caucasian ethnic subgroup, g.19259T > C T/T
  Least-Squares adjusted Mean (Std error), percent change from baseline LDL-C: −25.44 (0.67) %
Caucasian ethnic subgroup, g.28650A > G A/A
  Least-Squares adjusted Mean (Std error), percent change from baseline LDL-C: −24.63 (0.64) %
Caucasian ethnic subgroup, g.28650A > G A/G
  Least-Squares adjusted Mean (Std error), percent change from baseline LDL-C: −26.90 (0.87) %
Caucasian ethnic subgroup, g.28650A > G G/G
  Least-Squares adjusted Mean (Std error), percent change from baseline LDL-C: −26.52 (2.57) %
g.-18C > A A/A
  Least-Squares adjusted Mean (n/Std error), percent change from baseline LDL-C: −27.27 (22/3.61) %
g.-18C > A C/A
  Least-Squares adjusted Mean (n/Std error), percent change from baseline LDL-C: −27.85 (298/0.98) %
  Least-Squares (adjusted) Mean (n,/Stderr), percent change in LDL-C: −33.98 (62/4.05) %
g.-18C > A C/C
  Least-Squares adjusted Mean (n/Std error), percent change from baseline LDL-C: −24.16 (875/0.57) %
  Least-Squares (adjusted) Mean (n,/Stderr), percent change in LDL-C: −16.85 (177/2.40) %
g.-133A > G A/A
  Least-Squares adjusted Mean (n/Std error), percent change from baseline LDL-C: −25.92 (629/0.68) %
g.-133A > G A/G
  Least-Squares adjusted Mean (n/Std error), percent change from baseline LDL-C: −24.58 (477/0.78) %
g.-133A > G G/G
  Least-Squares adjusted Mean (n/Std error), percent change from baseline LDL-C: −22.56 (89/1.80) %
g.1679C > G C/C
  Least-Squares adjusted Mean (n/Std error), percent change from baseline LDL-C: −24.50 (723/0.63) %
g.1679C > G C/G
  Least-Squares adjusted Mean (n/Std error), percent change from baseline LDL-C: −25.77 (417/0.83) %
g.1679C > G G/G
  Least-Squares adjusted Mean (n/Std error), percent change from baseline LDL-C: −28.77 (55/2.29) %
g.19224G > A A/A
  Least-Squares adjusted Mean (n/Std error), percent change from baseline LDL-C: −31.64 (/6.94) %
g.19224G > A G/A
  Least-Squares adjusted Mean (n/Std error), percent change from baseline LDL-C: −25.07 (/1.34) %
g.19224G > A G/G
  Least-Squares adjusted Mean (n/Std error), percent change from baseline LDL-C: −25.11 (/0.53) %
g.19259T > C C/C
  Least-Squares adjusted Mean (n/Std error), percent change from baseline LDL-C: −26.38 (/1.98) %
g.19259T > C T/C
  Least-Squares adjusted Mean (n/Std error), percent change from baseline LDL-C: −25.01 (/0.82) %
g.19259T > C T/T
  Least-Squares adjusted Mean (n/Std error), percent change from baseline LDL-C: −25.07 (/0.64) %
g.28650A > G A/A
  Least-Squares adjusted Mean (n/Std error), percent change from baseline LDL-C: −24.40 (/0.60) %
g.28650A > G A/G
  Least-Squares adjusted Mean (n/Std error), percent change from baseline LDL-C: −26.50 (/0.89) %
g.28650A > G G/G
  Least-Squares adjusted Mean (n/Std error), percent change from baseline LDL-C: −27.19 (/2.65) %
EASE cohort, heterozygous for the minor allele of g.−18C>A (298/1195)
  mean LDL-C change from baseline: 27.8%
EASE cohort, homozygous for the common allele of g.−18C>A (n=875/1195)
  mean LDL-C change from baseline: 24.2%
EASE cohort, homozygous for the minor allele of g.−18C>A (n=22/1195)
  mean change in LDL-C: 27.3%
